According to the NIST ThermoML archive (doi:10.1016/j.jct.2018.12.006):

Conditions: 101.33 kPa, Crystal; for molar entropy: Small (less than 1 g) adiabatic calorimetry; for mass density: X-ray diffraction

C[N+](C)(C)C[C@H](O)CC(=O)[O-] [(R)-3-hydroxy-4-(trimethylammonio)butanoate]
Conditions	mass density [kg/m3]	molar entropy [J/K/mol]
5 K	–	0.0967
10 K	–	0.77
15 K	–	2.46
20 K	–	5.34
25 K	–	8.973
30 K	–	13
35 K	–	17.28
40 K	–	21.73
45 K	–	26.33
50 K	–	31.04
60 K	–	40.65
70 K	–	50.3
80 K	–	59.86
90 K	–	69.27
100 K	–	78.52
110 K	–	87.63
120 K	–	96.63
130 K	–	105.5
140 K	–	114.3
150 K	1256	122.9
160 K	–	131.4
170 K	–	139.9
175 K	1250	–
180 K	–	148.2
190 K	–	156.4
200 K	1253	164.5
210 K	–	172.5
220 K	–	180.3
225 K	1247	–
230 K	–	188.1
240 K	–	195.9
250 K	1247	203.6
260 K	–	211.2
270 K	–	218.8
273.15 K	–	221.2
275 K	1250	–
280 K	–	226.4
290 K	–	233.9
298.15 K	–	240.1
300 K	1245	241.5
310 K	–	249
320 K	–	256.5
325 K	1236	–
330 K	–	264
340 K	–	271.5
350 K	1239	279
375 K	1242	–
400 K	1236	–
425 K	1236	–
